In paper PMC8466373, “Plant-Derived and Dietary Hydroxybenzoic Acids—A Comprehensive Study of Structural, Anti-/Pro-Oxidant, Lipophilic, Antimicrobial, and Cytotoxic Activity in MDA-MB-231 and MCF-7 Cell Lines” (Nutrients, 2021):
In brackets after ≈: the same amount, converted by molar mass.

system: not given; test: not given; settings: ref 104; cited from earlier work

Row | SMILES | pKaexp.
1 | O=C(O)c1cc(O)c(O)c(O)c1 [3,4,5-THB, 3,4,5-trihydroxybenzoic acid] | 4.41
2 | O=C(O)c1cc(O)cc(O)c1 [3,5-DHB, 3,5-dihydroxybenzoic acid] | 4.04

same assay, conditions: ref 105; cited from earlier work

Row | SMILES | pKaexp.
3 | O=C(O)c1cc(O)c(O)c(O)c1 [3,4,5-THB, 3,4,5-trihydroxybenzoic acid] | 3.94
4 | O=C(O)c1cc(O)cc(O)c1 [3,5-DHB, 3,5-dihydroxybenzoic acid] | 3.61

same assay, conditions: ref 108; cited from earlier work

Row | SMILES | pKaexp.
5 | O=C(O)c1cc(O)cc(O)c1 [3,5-DHB, 3,5-dihydroxybenzoic acid] | 4.04

same assay, conditions: ref 110; cited from earlier work

Row | SMILES | pKaexp.
6 | O=C(O)c1cc(O)c(O)c(O)c1 [3,4,5-THB, 3,4,5-trihydroxybenzoic acid] | 4.40

system: not given; test: not given; settings: ref 102; cited from earlier work

Row | SMILES | LogPexp.
7 | O=C(O)c1cc(O)c(O)c(O)c1 [3,4,5-THB, 3,4,5-trihydroxybenzoic acid] | 0.70 [102]
8 | O=C(O)c1cc(O)cc(O)c1 [3,5-DHB, 3,5-dihydroxybenzoic acid] | 0.86 [102]

system: not given; test: not given; settings: C = 10 μM, CABTS = 7 mM, t = 7 min; read-out: ABTS radical scavenging activity (%); cited from earlier work

Row | SMILES | inhibition [%]
9 | O=C(O)c1cc(O)c(O)c(O)c1 [3,4,5-THB, 3,4,5-trihydroxybenzoic acid] | ~80

same assay, conditions: CABTS = 7 mM, t = 6 min, ref 68; read-out: ABTS, IC50; cited from earlier work

Row | SMILES | IC50 [µM]
10 | O=C(O)c1cc(O)ccc1O [2,5-DHB, 2,5-dihydroxybenzoic acid] | ~6.5

same assay, conditions: CABTS = 7 mM, t = 6 min, ref 73; read-out: ABTS, IC50; cited from earlier work

Row | SMILES | IC50 [µM]
11 | O=C(O)c1cc(O)ccc1O [2,5-DHB, 2,5-dihydroxybenzoic acid] | 15.6
12 | O=C(O)c1cc(O)c(O)c(O)c1 [3,4,5-THB, 3,4,5-trihydroxybenzoic acid] | 4.33
13 | O=C(O)c1cc(O)cc(O)c1 [3,5-DHB, 3,5-dihydroxybenzoic acid] | 41.9

system: not listed separately; test: CUPRAC assay (cupric-reducing antioxidant capacity); format: biochemical; settings: concentration of 50 μM, methanolic solutions
Description: CUPRAC assay was carried out according to the method described in [44]. First, […] of CuCl2 (C = 10 mM; in water) was mixed with […] of ammonium acetate (pH 7; in water) and neocuproine (C = 75 mM; in ethanol). […] The samples were mixed and incubated for 60 min at room temperature (23 °C). The absorbance of the samples was measured with a UV–Vis spectrophotometer at λ = 450 nm against a blank (containing 0.5 mL of methanol instead of the sample). […] R^2 = 0.9919).

Row | SMILES | CUPRAC assay: Trolox equivalent [µM]
14 | O=C(O)c1cc(O)ccc1O [2,5-DHB, 2,5-dihydroxybenzoic acid] | 68.77
15 | O=C(O)c1cc(O)c(O)c(O)c1 [3,4,5-THB, 3,4,5-trihydroxybenzoic acid] | 73.85

system: MDA-MB-231 cells; test: Cytotoxicity, neutral red (NR) assay; format: cell-based, human; settings: 48 h treatment, neutral red assay
Description: (§1) Briefly, MCF-7 cells were cultured in EMEM (Biological Industries, Israel) medium supplemented with 10% fetal calf serum (Gibco). MDA-MB-231 cells were cultured in Leibovitz‘s L15 (Biological Industries, Beit HaEmek, Israel) medium supplemented with 10% fetal calf serum (Gibco). The MCF-7 cells were incubated in a 5% CO2 atmosphere at 37 °C, whereas the MDA-231 cells were incubated in a 100% air atmosphere at 37 °C.
(§2) Cytotoxicity evaluation was conducted to assess the impact of hydroxybenzoic acids on the proliferation of MCF-7 and MDA-MB-231 cells, which was measured via neutral red (NR) assay. In brief, cells were seeded in 96-well microplates (TPP, Switzerland) at a density of 2 × 10^4 cells/well in 100 μL of culture medium. At least three independent experiments in six replicate wells were conducted per concentration. Twenty-four hours after cell seeding, cells were treated with increasing concentrations of hydroxybenzoic acids (0.02–5 mM) for forty-eight hours. After treatment, cells were incubated for 3 h at 37 °C with 100 µL of neutral red solution (stock solution of NR) (Sigma-Aldrich), and then 5 mg/mL of PBS was diluted 1:100 in cell culture medium, incubated for 12 h at 37 °C, and centrifuged to remove any undissolved NR powder. […] After 15 min of gentle shaking, optical density was read at 540 nm with an Infinite M200 plate reader spectrophotometer (Tecan, Austria).

Row | SMILES | Cytotoxicity (mM) in Cell Line MDA-MB-231, IC50
16 | O=C(O)c1cc(O)cc(O)c1 [3,5-DHB, 3,5-dihydroxybenzoic acid] | nontoxic

same assay, conditions: concentration of 5 mM

Row | SMILES | inhibition of growth of MDA-MB-231 cells
17 | O=C(O)c1cc(O)c(O)c(O)c1 [3,4,5-THB, 3,4,5-trihydroxybenzoic acid] | almost completely

system: MCF-7 cells; test: Cytotoxicity, neutral red (NR) assay; format: cell-based, human; settings: 48 h treatment, neutral red assay
Description: as §1, §2

Row | SMILES | Cytotoxicity (mM) in Cell Line MCF-7, IC50
18 | O=C(O)c1cc(O)cc(O)c1 [3,5-DHB, 3,5-dihydroxybenzoic acid] | nontoxic

same assay, conditions: concentration of 5 mM

Row | SMILES | inhibition of growth of MCF-7 cells
19 | O=C(O)c1cc(O)c(O)c(O)c1 [3,4,5-THB, 3,4,5-trihydroxybenzoic acid] | almost completely

system: Salmonella enteritidis (NCTC 4776); test: MIC by serial dilution in agar medium; format: cell-based; settings: Salmonella enterica; Salmonella enteritidis; read-out: MIC
Description: The following bacterial strains were used in this study: Escherichia coli (PCM 2857), Pseudomonas aeruginosa (PCM 2720), Bacillus subtilis (PCM 2850), Staphylococcus aureus (PCM 2267), Salmonella enteritidis (NCTC 4776), and Candida albicans (PCM 2566-FY). The microbial strains were bought from the Polish Collection of Microorganisms (Wroclaw, Poland) or the American Type Culture Collection.
The MIC (minimal inhibitory concentration) was determined by serial dilution of the tested compound in an agar medium, to which the appropriate inoculum of microorganisms was then added and incubated. Escherichia coli, Pseudomonas aeruginosa, Staphylococcus aureus, Bacillus subtilis, Salmonella enteritidis, and Candida albicans were grown overnight and then resuspended in physiological saline to an optical density at 600 nm (OD = 600) of 0.60, corresponding to 5.0 × 10^8 CFU/mL. Bacteria (0.1 mL of the reconstituted suspension) were seeded onto sterile Mueller–Hinton agar plates, to which previously suitable amounts of the tested compounds were added to reach the desired concentration. Tested chemicals were dissolved in DMSO solution. Negative controls were agar plates, to which DMSO was added, while positive controls were plates with gentamycin (in the case of bacteria) or flucanozole (in the case of fungi). The plates were incubated at 37 °C for 24 h. The lowest concentration without visible bacterial growth was determined as the MIC.

Row | MIC [mg/L] | SMILES
20 | 3000 (≈ 19.5 mM) | O=C(O)c1cc(O)ccc1O [2,5-DHB, 2,5-dihydroxybenzoic acid]
21 | 2000 (≈ 13 mM) | O=C(O)c1cc(O)cc(O)c1 [3,5-DHB, 3,5-dihydroxybenzoic acid]

system: not listed separately; test: Pro-oxidant activity, Trolox oxidation assay; format: biochemical; settings: after 120 min of incubation, concentrations of 35 μM
Description: The pro-oxidant activity was expressed as the rate of Trolox oxidation according to the protocol described in [45]. First, a mixture of 0.5 mL of Trolox (C = 0.4 mM; in water) with 0.5 mL of H2O2 (C = 0.2 mM; in water), 0.5 mL of HRP (C = 0.04 μM; in phosphate buffer; pH = 7), 5 μL of the tested compounds (C = 50 μM; in methanol), and […] of distilled water was prepared as the tested sample. […] The control contained methanol instead of the tested substance.

Row | SMILES | degree of Trolox oxidation [%]
22 | O=C(O)c1cc(O)cc(O)c1 [3,5-DHB, 3,5-dihydroxybenzoic acid] | 8.03

system: not listed separately; test: Lipophilicity via RP-HPLC; format: physicochemical; settings: C8 column
Description: The analyses were carried out on the following chromatographic columns: RP-18e Purospher STAR (C18), 150 mm × 4.0 mm, 5 µm, (Merck, Darmstadt, Germany); RP-8e Purospher STAR (C8), 150 mm × 4.6 mm, 5 µm, (Merck, Darmstadt, Germany); Zorbax Eclipse XDB-CN (CN), 150 mm × 4.6 mm, 5 µm, (Agilent Technologies, Santa Clara, CA, USA); Nucleosil Phenyl (PHE), 250 mm × 4.6 mm, 7 µm, (Supelco, Bellefonte, PA, USA); and Regis Rexchrom IAM.PC.DD.2 (IAM), 100 mm × 4.6 mm, 10 µm, (Regis Technologies Inc., Morton Grave, IL, USA). The experimental conditions and the calculations were as described in [46].

Row | SMILES | log kw | ϕ0
23 | O=C(O)c1cc(O)c(O)c(O)c1 [3,4,5-THB, 3,4,5-trihydroxybenzoic acid] | 0.50 | 0.91
24 | O=C(O)c1cc(O)cc(O)c1 [3,5-DHB, 3,5-dihydroxybenzoic acid] | 0.90 | 0.83

same assay, conditions: C18 column

Row | SMILES | log kw | ϕ0
25 | O=C(O)c1cc(O)c(O)c(O)c1 [3,4,5-THB, 3,4,5-trihydroxybenzoic acid] | 1.91 | 0.37
26 | O=C(O)c1cc(O)cc(O)c1 [3,5-DHB, 3,5-dihydroxybenzoic acid] | 2.56 | 0.45

same assay, conditions: CN column

Row | SMILES | log kw | ϕ0
27 | O=C(O)c1cc(O)c(O)c(O)c1 [3,4,5-THB, 3,4,5-trihydroxybenzoic acid] | 1.24 | 1.06
28 | O=C(O)c1cc(O)cc(O)c1 [3,5-DHB, 3,5-dihydroxybenzoic acid] | 1.78 | 1.07

same assay, conditions: IAM column

Row | SMILES | log kw | ϕ0
29 | O=C(O)c1cc(O)c(O)c(O)c1 [3,4,5-THB, 3,4,5-trihydroxybenzoic acid] | 0.15 | 1.44
30 | O=C(O)c1cc(O)cc(O)c1 [3,5-DHB, 3,5-dihydroxybenzoic acid] | 0.51 | 1.16

same assay, conditions: PHE column

Row | SMILES | log kw | ϕ0
31 | O=C(O)c1cc(O)c(O)c(O)c1 [3,4,5-THB, 3,4,5-trihydroxybenzoic acid] | 0.83 | 0.33
32 | O=C(O)c1cc(O)cc(O)c1 [3,5-DHB, 3,5-dihydroxybenzoic acid] | 1.03 | 0.55
